Measured values as given in ChEMBL document CHEMBL3797172, “Structure Property Relationships of Carboxylic Acid Isosteres” (J Med Chem, 2016).
Values after ≈ are worked out from the molar mass of the structure shown.

How the values were obtained:
[1] = octanol/water, pH 7.4, 1 h
physchem [2] = conditions: aqueous phosphate buffer, pH 7.4
[3] = Effective permeability of compound assessed as membrane retention at pH 7.4 at 200 uM after 5 hrs by PAMPA relative to control; assay type: ADME; conditions: pH 7.4, 5 h
[4] = Percentage unbound in human plasma at 5 uM after 6 hrs by equilibrium dialysis method; assay type: ADME, cell-free; conditions: for Fu: 6 h, 5 µM
[5] = Effective permeability of compound at pH 7.4 at 200 uM after 5 hrs by PAMPA; assay type: ADME; conditions: PAMPA, pH 7.4; read-out: Peff
[6] = Dissociation constant, pKa of the compound at 100 uM by capillary electrophoresis; assay type: physicochemical; conditions: for pKa: 100 µM
physchem [7] = conditions: 1-octanol/aqueous buffer, pH 7.4

SMILES | logD [1] | solubility kinetic at 24 h, 200 µM (physchem [2]) | R% [3] | Fu [4] | Papp at 5 h, 200 µM [5] | pKa [6] | pKa at 100 µM [6] | fraction unbound at 6 h, 5 µM [4] | logD at 1 h (physchem [7])
c1ccc(CCc2nnn[nH]2)cc1 | -0.25 | ≥ 200 µM | 4.7% | 1.12% |  |  |  |  | 
O=C1CCC(Cc2ccccc2)=C1O | 1.85 | 195 µM (≈ 36.7 µg/mL) | 1.5% | 16% |  |  |  |  | 
CC(=O)NOCCc1ccccc1 | 1.18 | 200 µM (≈ 35.8 µg/mL) | -2.9% | 64% | 4.6 ×10⁻⁶ cm/s |  |  |  | 
Oc1cc(Cc2ccccc2)on1 | 0.46 | ≥ 200 µM | -11% | 0.1% |  |  |  |  | 
Oc1c(F)ccc(Cc2ccccc2)c1F | 3.56 | 149 µM (≈ 32.7 µg/mL) | -32% | 0.52% |  |  |  |  | 
O=c1c(O)c(NCc2ccccc2)c1=O |  | ≥ 200 µM | -6.6% | 6.45% |  | < 2 |  |  | 
O=C1CC(c2ccccc2)C=C1O (stereo unspecified) | 1.71 | 192 µM (≈ 33.5 µg/mL) | -8.6% |  |  |  |  |  | 
O=S(=O)(Cc1ccccc1)c1ccccc1O | 1.76 | 197 µM (≈ 48.9 µg/mL) | 7.2% | 1.59% |  |  |  |  | 
Oc1c(F)cc(Cc2ccccc2)cc1F | 3.34 | 109 µM (≈ 24 µg/mL) | 49% | 0.26% |  |  |  |  | 
CN(C)S(=O)(=O)NC(=O)CCc1ccccc1 | 0.17 | 199 µM (≈ 51 µg/mL) | 2.2% | 8.1% |  | 5.86 |  |  | 
O=S(=O)([O-])CCc1ccccc1.[Na+] | -1.45 | ≥ 200 µM | -6.1% | 0.31% |  | < 2 |  |  | 
O=C1CC(=O)C(Cc2ccccc2)N1 (stereo unspecified) | -0.35 | ≥ 200 µM | 1.3% |  | 2.5 ×10⁻⁶ cm/s |  |  |  | 
CC(=O)NC(=O)NCc1ccccc1 | 1.42 | ≥ 200 µM | -3.3% | 77% |  | > 12 |  |  | 
CS(=O)(=O)NCCCc1ccccc1 | 1.42 | ≥ 200 µM | 8.1% | 37.27% |  | > 12 |  |  | 
O=C(O)CCc1ccccc1 |  | 111 µM (≈ 16.6 µg/mL) | -7% | 9.5% |  |  |  |  | 
CC1=C(O)CC(Cc2ccccc2)C1=O (stereo unspecified) |  | > 200 µM | -5.1% |  | 0.26 ×10⁻⁶ cm/s |  | 4.47 | 0.111 | -0.33
CS(=O)(=O)NC(=O)CCc1ccccc1 |  | 200 µM (≈ 45.4 µg/mL) | 1.4% | 12.8% |  |  |  |  | 
O=C(CCc1ccccc1)NO | 0.71 | ≥ 200 µM | 0.03% | 29% |  |  |  |  | 
